# In patent US20220332700A1, “NOVEL APOPTOSIS SIGNAL-REGULATING KINASE 1 INHIBITORS” (MANKIND PHARMA LTD, priority 2019, published 2022):
# Target: T1, recombinant ASK1 (Homo sapiens, UniProt Q99683)
# T1 construct: purchased Carna Biosciences
# Assay: ASK1 Biochemical Assay (HTRF KinEASE-STK S3)
# Settings: ATP 100 μM; read-out: Biochemical Assay IC50
# Method: ASK1 biochemical assay was standardized using recombinant ASK1 (Carna Biosciences), substrate and detection reagents from Cisbio HRTF KinEASE-STK S3 kit. Enzyme concentration, ATP, biotinylated STK substrate and STK antibodies were titrated for enzyme assay. Assay was carried out in ASK1 kinase buffer, 10 mM MOPS pH-7, 10 mM Mg-acetate, 1 mM DTT, 0.025% NP40, 1.5% glycerol and 0.05% BSA. DMSO was used as vehicle control with a final concentration of 1%. A 5 ng of ASK1 enzyme was incubated with compound for 1 hour at 23° C. on a shaker at 100rpm. ATP and biotin substrate was added at a final concentration of 100 μM and 1 μM and incubated for 3 hours at 23° C. on a shaker at 100rpm. […] Delta F ratios were calculated from data obtained at excitation (337 nm) and emission wavelengths (665 nm and 620-10 nm). Substrate blank values was considered as negative control. Values from negative control was substrated from vehicle control and compound treated wells. Enzyme inhibition by compounds were calculated from vehicle controls, which represent uninterrupted enzyme's activity.
# T1 sequence (Q99683 654-971 limits assumed): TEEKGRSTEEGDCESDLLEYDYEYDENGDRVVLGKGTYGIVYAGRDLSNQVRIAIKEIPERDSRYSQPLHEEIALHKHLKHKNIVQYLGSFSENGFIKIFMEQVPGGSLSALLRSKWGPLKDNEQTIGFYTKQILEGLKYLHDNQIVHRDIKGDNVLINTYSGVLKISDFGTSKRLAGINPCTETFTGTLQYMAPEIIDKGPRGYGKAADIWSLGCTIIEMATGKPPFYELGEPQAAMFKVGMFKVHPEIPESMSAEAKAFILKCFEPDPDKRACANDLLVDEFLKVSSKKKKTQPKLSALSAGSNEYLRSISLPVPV
row,SMILES,IC50 [µM]
1,"CC(C)n1cnnc1-c1cccc(N2CCN(c3cc(-n4ccnc4)ncn3)C2=O)n1 [Example 1001, 1-(6-(1H-imidazol-1-yl)pyrimidin-4-yl)-3-(6-(4-isopropyl-4H-1,2,4-triazol-3-yl)pyridin-2-yl)imidazolidin-2-one]",1.3
2,"CC(C)n1cnnc1-c1cccc(N2CCN(c3cc(-n4ccnc4)ccn3)C2=O)n1 [Example 1003, 1-(4-(1H-imidazol-1-yl)pyridin-2-yl)-3-(6-(4-isopropyl-4H-1,2,4-triazol-3-yl)pyridin-2-yl)imidazolidin-2-one]",> 1
3,"CC(C)n1cnnc1-c1cccc(-n2ccn(-c3cc(-n4ccnc4)ncn3)c2=O)n1 [Example 1004, 1-(6-(1H-imidazol-1-yl)pyrimidin-4-yl)-3-(6-(4-isopropyl-4H-1,2,4-triazol-3-yl)pyridin-2-yl)-1H-imidazol-2(3H)-one]",> 1
4,"CC(C)n1cnnc1-c1cccc(N2CCN(c3cccc(-n4cnc(C5CC5)c4)c3)C2=O)n1 [Example 1005, 1-(3-(4-cyclopropyl-1H-imidazol-1-yl)phenyl)-3-(6-(4-isopropyl-4H-1,2,4-triazol-3-yl)pyridin-2-yl)imidazolidin-2-one]",< 1
5,"CC(C)n1cnnc1-c1cccc(-n2ccn(-c3cccc(-n4ccnc4)c3)c2=O)n1 [Example 1006, 1-(3-(1H-imidazol-1-yl)phenyl)-3-(6-(4-isopropyl-4H-1,2,4-triazol-3-yl)pyridin-2-yl)-1H-imidazol-2(3H)-one]",< 1
6,"CC(C)n1cnnc1-c1cccc(N2CCN(c3cccc(-n4ccnc4)c3F)C2=O)n1 [Example 1008, 1-(2-fluoro-3-(1H-imidazol-1-yl)phenyl)-3-(6-(4-isopropyl-4H-1,2,4-triazol-3-yl)pyridin-2-yl)imidazolidin-2-one]",> 1
7,"CC(C)n1cnnc1-c1cccc(N2CCN(c3cccc(S(C)(=O)=O)c3)C2=O)n1 [Example 1009, 1-(6-(4-isopropyl-4H-1,2,4-triazol-3-yl)pyridin-2-yl)-3-(3-(methylsulfonyl)phenyl)imidazolidin-2-one]",0.095
8,"CC(C)n1cnnc1-c1cccc(N2CCN(c3cccc(-c4cnn(C)c4)c3)C2=O)n1 [Example 1012, 1-(6-(4-isopropyl-4H-1,2,4-triazol-3-yl)pyridin-2-yl)-3-(3-(1-methyl-1H-pyrazol-4-yl)phenyl)imidazolidin-2-one]",< 1
9,"CC(C)n1cnnc1-c1cccc(N2CCN(c3cccc(-c4ccc(C(N)=O)cc4)c3)C2=O)n1 [Example 1015, 3′-(3-(6-(4-isopropyl-4H-1,2,4-triazol-3-yl)pyridin-2-yl)-2-oxoimidazolidin-1-yl)-[1,1′-biphenyl]-4-carboxamide]",> 1
10,"CC(C)n1cnnc1-c1cccc(N2CCN(c3cccc(-c4ccc(C#N)cc4)c3)C2=O)n1 [Example 1016, 3′-(3-(6-(4-isopropyl-4H-1,2,4-triazol-3-yl)pyridin-2-yl)-2-oxoimidazolidin-1-yl)-[1,1′-biphenyl]-4-carbonitrile]",> 1
11,"CC(C)n1cnnc1-c1cccc(N2CCN(c3cccc(-c4ccc(C(F)(F)F)cc4)c3)C2=O)n1 [Example 1017, 1-(6-(4-isopropyl-4H-1,2,4-triazol-3-yl)pyridin-2-yl)-3-(4′-(trifluoromethyl)-[1,1′-biphenyl]-3-yl)imidazolidin-2-one]",> 1
12,"COc1cc(C)c(-c2ccc(S(C)(=O)=O)cc2)cc1N1CCN(c2cccc(-c3nncn3C(C)C)n2)C1=O [Example 1026, 1-(6-(4-isopropyl-4H-1,2,4-triazol-3-yl)pyridin-2-yl)-3-(4-methoxy-6-methyl-4′-(methylsulfonyl)-[1,1′-biphenyl]-3-yl)imidazolidin-2-one]",> 0.1
13,"CC(C)n1cnnc1-c1cccc(N2CCN(S(C)(=O)=O)C2=O)n1 [Example 1028, 1-(6-(4-isopropyl-4H-1,2,4-triazol-3-yl)pyridin-2-yl)-3-(methylsulfonyl)imidazolidin-2-one]",> 1
